Data taken from patent US9249517B2, “Process for production of reduced glutathione” (Kyowa Hakko Bio Co., Ltd., priority 2009, dated 2016).

Tests used:
[1] = 25° C., 24-36 hr
Method: Using an aqueous reduced glutathione solution (100 g/L, pH 2.90) and sulfuric acid, aqueous reduced glutathione solutions (100 g/L) adjusted to pH 0.6, 1.2 and 2.0 were produced.
Each solution was preserved at 25° C. for 24-36 hr, and the residual amount of reduced glutathione was quantified by high performance liquid chromatography (HPLC) under the following conditions. […] As for the impurity, the total amount of the substances other than reduced glutathione and oxidized glutathione was quantified under the following HPLC conditions, and the concentration (g/L) converted to reduced glutathione was calculated.
HPLC Conditions • column: Nucleosil 100-5 C18 φ4.6×150 mm • column temperature: 40° C. • buffer: 10% acetonitrile solution containing 0.405% sodium 1-heptanesulfonate (adjusted to pH 2.0 with phosphoric acid) • flow rate: 1.0 mL/min • detector: UV detector (wavelength 210 nm)

[2] = Solubility of oxidized glutathione in water; type: physicochemical
Description: Utilizing this characteristic, a solution of oxidized glutathione with concentration beyond saturation solubility can be prepared. […] While the concentration of the supersaturated aqueous oxidized glutathione solution containing a conducting agent other than acid is not limited as long as it can maintain supersaturation state, it is 50 g/L or more, preferably 100 g/L or more, more preferably 150 g/L or more, further preferably 200 g/L or more, most preferably 300 g/L or more.

Row | Compound | reduced glutathione residual ratio ([1]; 100 g/L aqueous solution at pH 2.0 or less (pH 0.6, 1.2, 2.0, sulfuric acid) vs pH 2.90, FIG. 1A) | increased amount of impurity due to hydrolysis ([1]; 100 g/L aqueous solution at pH 2.0 or less vs pH 2.90, FIG. 1B) | stability of supersaturation state ([2]; ambient temperature, requires several days before crystallizing) | supersaturation solubility ([2]; once dissolved, aqueous solution) | saturation solubility in water ([2]; water, ambient temperature (25° C.)) [mg/mL]
1 | N[C@@H](CCC(=O)N[C@@H](CS)C(=O)NCC(=O)O)C(=O)O [reduced glutathione] | lower reduced glutathione residual ratio as compared to a solution at pH 2.90 | higher increased amount of impurity due to hydrolysis as compared to a solution at pH 2.90 |  |  | 
2 | oxidized glutathione |  |  | stable at ambient temperature | over 300 g/L | ≤ 20
